Measurements: the supplement of paper PMC6775116

What was measured:
Test in all cases: apparent dissociation constant (depletion-corrected kinobeads competition) (-log10 M (pKd app)); higher = tighter binding
CDK10 = CDK10 (UniProt Q15131)
KSR1 = molecular target: T1, KSR1 (UniProt Q8IVT5)
T1 sequence (whole entry): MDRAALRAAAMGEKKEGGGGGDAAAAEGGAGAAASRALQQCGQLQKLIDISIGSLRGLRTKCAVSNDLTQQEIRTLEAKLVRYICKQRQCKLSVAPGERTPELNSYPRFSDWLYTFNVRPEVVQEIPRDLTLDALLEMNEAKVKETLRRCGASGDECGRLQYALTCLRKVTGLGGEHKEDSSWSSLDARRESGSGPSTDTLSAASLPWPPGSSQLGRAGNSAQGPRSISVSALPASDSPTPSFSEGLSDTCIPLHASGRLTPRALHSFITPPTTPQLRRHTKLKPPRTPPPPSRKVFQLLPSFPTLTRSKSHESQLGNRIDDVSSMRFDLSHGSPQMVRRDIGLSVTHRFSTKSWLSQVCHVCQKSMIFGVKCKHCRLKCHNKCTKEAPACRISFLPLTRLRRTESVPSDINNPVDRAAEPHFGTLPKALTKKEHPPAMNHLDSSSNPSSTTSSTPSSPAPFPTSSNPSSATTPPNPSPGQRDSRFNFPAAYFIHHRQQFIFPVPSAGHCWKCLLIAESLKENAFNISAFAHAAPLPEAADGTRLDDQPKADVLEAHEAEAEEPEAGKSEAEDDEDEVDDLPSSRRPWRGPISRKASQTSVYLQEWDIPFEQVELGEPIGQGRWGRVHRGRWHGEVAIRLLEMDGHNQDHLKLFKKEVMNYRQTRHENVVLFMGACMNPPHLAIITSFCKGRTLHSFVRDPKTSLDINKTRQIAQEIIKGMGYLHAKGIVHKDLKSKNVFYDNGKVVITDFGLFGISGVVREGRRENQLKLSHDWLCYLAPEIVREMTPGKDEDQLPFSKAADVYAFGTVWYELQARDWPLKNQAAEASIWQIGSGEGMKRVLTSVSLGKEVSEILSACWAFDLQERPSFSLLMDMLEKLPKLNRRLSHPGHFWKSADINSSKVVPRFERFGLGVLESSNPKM

LOC100128443 = molecular target: LOC100128443
MARK1 = MARK1 (UniProt Q9P0L2); details: lysate: K562 + HEK293 + human placenta lysate mix
MASTL = molecular target: T2, MASTL (UniProt Q96GX5); details: lysate: K562 + HEK293 + human placenta lysate mix
T2 sequence (whole entry): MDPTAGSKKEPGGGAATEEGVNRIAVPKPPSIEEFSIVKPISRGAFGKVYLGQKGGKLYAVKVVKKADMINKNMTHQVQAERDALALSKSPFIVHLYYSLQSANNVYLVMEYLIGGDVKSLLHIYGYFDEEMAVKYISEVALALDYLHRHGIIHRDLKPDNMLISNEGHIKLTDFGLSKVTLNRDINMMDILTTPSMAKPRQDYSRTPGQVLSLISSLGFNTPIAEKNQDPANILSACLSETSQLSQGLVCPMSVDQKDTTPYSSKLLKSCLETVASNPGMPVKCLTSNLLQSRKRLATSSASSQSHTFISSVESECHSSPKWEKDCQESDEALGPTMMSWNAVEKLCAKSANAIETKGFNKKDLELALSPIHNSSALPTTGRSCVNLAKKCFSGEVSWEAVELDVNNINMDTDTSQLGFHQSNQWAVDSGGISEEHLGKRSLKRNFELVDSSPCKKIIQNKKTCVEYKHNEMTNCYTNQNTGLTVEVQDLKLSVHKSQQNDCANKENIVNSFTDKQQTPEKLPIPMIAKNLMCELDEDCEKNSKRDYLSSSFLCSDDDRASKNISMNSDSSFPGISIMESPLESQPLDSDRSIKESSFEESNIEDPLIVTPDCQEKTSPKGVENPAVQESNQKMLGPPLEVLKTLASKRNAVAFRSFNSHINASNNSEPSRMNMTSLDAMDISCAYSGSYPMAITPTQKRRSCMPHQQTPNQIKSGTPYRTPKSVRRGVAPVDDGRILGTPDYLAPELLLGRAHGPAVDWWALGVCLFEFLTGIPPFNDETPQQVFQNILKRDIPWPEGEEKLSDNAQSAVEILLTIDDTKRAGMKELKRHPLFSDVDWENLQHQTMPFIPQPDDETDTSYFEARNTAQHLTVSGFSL

PI4KA = PI4KA (UniProt P42356); details: lysate: K562 + HEK293 + human placenta lysate mix
PIK3R4 = PIK3R4 (UniProt Q99570); details: lysate: K562 + HEK293 + human placenta lysate mix
PIP4K2A = molecular target: T3, PIP4K2A (UniProt P48426)
T3 sequence (whole entry): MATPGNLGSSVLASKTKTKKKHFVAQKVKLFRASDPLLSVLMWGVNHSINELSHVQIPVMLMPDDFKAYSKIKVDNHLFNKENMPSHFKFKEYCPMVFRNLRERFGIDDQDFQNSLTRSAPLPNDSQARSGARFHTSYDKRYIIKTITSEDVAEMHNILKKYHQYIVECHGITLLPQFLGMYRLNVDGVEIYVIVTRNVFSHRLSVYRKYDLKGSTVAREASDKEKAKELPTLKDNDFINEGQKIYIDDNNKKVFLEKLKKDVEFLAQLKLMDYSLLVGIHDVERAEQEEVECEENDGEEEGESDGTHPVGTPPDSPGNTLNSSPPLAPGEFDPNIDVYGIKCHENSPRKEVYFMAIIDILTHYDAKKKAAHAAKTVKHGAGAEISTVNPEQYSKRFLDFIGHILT

[1] = lysate: K562 + HEK293 + human placenta lysate mix
[2] = lysate: human PBMC lysate, individual donor, donor: donor 1
[3] = lysate: human PBMC lysate, individual donor, donor: donor 2
[4] = lysate: human PBMC lysate, individual donor, donor: donor 3

Measured: apparent dissociation constant (-log10 M)

Sequence of CDK10 (Q15131 whole entry): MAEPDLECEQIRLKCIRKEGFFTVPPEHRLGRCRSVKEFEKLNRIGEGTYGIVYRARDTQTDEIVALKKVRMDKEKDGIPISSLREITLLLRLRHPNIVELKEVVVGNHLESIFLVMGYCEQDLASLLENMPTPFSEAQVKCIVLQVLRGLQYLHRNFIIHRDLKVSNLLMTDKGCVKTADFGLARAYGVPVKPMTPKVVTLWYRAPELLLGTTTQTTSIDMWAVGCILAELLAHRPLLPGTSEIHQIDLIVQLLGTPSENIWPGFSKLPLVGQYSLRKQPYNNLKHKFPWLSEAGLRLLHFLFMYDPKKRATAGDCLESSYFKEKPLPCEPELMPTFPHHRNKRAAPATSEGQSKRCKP
Sequence of PIK3R4 (Q99570 whole entry): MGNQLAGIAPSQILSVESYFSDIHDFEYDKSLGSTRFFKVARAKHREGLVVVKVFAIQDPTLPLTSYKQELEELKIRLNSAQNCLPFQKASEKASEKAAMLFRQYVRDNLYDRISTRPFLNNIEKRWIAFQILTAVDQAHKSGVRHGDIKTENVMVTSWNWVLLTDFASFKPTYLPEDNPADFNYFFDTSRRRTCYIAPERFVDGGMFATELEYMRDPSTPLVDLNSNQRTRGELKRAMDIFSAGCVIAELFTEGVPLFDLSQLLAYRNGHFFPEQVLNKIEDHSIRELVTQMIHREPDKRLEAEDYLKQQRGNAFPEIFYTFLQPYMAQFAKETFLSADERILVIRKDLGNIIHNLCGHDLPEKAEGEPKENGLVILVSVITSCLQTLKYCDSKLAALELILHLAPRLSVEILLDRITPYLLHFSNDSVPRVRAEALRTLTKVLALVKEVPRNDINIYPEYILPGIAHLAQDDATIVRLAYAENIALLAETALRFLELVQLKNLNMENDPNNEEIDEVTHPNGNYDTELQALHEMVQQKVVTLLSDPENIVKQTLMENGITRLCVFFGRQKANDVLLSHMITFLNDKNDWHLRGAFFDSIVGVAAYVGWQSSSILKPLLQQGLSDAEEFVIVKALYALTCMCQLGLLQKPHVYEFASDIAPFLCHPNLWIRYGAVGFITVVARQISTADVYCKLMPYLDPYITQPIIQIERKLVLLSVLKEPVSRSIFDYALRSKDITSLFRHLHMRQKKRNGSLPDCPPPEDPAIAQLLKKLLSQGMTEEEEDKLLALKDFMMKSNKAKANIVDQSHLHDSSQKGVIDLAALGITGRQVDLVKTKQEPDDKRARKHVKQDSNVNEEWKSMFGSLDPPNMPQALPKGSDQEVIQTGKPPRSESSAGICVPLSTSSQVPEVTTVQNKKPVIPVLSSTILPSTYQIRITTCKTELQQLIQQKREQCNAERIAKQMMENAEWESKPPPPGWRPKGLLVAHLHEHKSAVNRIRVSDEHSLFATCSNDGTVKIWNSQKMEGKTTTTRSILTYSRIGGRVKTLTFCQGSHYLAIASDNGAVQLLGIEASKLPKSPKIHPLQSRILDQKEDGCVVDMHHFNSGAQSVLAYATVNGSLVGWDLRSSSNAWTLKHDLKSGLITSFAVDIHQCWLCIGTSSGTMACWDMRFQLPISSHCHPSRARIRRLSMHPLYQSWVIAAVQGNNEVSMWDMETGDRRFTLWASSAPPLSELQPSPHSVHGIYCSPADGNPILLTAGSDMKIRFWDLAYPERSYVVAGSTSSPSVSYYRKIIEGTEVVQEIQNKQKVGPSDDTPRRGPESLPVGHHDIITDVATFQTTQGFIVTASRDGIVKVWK
Sequence of PI4KA (P42356 whole entry, looked up): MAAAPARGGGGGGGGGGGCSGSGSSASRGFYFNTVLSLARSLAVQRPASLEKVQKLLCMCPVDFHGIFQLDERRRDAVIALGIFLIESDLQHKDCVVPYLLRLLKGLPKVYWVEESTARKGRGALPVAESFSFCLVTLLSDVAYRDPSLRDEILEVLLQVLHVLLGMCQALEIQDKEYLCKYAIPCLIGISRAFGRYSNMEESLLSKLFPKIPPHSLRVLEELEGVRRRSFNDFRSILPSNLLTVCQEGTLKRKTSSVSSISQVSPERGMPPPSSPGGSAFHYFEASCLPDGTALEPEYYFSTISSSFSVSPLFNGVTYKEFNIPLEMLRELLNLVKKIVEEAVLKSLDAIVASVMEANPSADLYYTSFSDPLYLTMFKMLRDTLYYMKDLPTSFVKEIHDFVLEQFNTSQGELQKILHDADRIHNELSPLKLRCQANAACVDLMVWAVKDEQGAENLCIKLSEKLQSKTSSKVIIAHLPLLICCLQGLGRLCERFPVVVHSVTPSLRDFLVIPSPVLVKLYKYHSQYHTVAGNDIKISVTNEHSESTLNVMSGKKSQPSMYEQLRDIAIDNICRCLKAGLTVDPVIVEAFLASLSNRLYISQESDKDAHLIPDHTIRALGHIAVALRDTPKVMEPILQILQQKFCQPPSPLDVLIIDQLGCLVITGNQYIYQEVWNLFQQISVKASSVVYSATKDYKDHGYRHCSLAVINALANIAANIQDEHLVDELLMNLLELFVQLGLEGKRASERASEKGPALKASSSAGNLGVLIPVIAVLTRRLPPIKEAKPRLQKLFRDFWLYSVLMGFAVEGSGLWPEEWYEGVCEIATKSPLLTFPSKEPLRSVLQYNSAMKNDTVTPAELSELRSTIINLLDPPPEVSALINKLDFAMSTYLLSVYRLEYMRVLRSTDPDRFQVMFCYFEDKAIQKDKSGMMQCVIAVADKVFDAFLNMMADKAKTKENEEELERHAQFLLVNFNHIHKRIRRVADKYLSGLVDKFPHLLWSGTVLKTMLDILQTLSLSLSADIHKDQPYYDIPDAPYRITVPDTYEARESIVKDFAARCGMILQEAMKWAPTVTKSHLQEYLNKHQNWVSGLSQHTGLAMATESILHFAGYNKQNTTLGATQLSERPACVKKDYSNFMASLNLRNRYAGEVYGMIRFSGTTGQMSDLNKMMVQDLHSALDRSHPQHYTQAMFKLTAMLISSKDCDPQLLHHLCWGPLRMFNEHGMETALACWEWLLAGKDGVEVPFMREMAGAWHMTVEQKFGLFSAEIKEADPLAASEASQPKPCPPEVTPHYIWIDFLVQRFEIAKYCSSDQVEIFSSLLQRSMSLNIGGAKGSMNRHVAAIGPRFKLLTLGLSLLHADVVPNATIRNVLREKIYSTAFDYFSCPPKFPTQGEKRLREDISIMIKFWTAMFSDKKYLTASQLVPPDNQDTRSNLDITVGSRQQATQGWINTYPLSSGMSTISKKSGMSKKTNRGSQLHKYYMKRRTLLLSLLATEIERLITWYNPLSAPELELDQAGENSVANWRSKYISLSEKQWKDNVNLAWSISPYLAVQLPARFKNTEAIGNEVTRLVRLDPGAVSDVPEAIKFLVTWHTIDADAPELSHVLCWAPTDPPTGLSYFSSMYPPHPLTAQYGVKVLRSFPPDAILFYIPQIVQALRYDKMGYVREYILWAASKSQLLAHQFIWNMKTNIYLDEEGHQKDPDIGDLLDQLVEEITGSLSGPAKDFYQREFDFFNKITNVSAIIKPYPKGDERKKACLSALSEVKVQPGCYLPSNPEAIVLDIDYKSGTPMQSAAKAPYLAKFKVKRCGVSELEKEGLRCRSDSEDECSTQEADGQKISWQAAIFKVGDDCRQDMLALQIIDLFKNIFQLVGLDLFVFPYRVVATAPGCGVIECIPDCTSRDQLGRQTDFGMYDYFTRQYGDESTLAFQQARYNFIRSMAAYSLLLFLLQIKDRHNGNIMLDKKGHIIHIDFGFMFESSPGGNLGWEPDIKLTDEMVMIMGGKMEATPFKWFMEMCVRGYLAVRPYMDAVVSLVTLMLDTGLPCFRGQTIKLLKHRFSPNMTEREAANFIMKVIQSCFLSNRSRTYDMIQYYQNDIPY
Sequence of MARK1 (Q9P0L2 whole entry, looked up): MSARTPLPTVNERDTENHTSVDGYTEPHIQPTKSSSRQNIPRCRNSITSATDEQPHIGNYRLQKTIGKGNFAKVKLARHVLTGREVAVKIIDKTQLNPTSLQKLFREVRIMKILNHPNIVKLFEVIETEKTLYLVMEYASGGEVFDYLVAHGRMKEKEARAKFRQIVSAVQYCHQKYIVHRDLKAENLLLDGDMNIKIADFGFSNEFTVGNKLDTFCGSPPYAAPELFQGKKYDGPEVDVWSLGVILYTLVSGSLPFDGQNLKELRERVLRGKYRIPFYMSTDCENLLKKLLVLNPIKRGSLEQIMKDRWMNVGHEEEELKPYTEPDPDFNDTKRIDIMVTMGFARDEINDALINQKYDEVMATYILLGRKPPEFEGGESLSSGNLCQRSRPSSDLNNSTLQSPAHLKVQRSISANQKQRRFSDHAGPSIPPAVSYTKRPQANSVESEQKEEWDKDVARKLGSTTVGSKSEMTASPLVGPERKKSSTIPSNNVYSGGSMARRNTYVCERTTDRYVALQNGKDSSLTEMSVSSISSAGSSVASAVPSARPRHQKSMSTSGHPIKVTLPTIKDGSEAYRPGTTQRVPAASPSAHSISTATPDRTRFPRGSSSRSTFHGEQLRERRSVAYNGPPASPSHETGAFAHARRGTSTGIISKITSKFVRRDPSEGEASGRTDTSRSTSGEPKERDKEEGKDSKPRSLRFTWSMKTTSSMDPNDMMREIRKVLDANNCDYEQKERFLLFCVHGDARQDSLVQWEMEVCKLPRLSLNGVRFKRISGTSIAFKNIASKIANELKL

Cc1nc(Nc2ncc(C(=O)Nc3c(C)cccc3Cl)s2)cc(N2CCN(CCO)CC2)n1 [dasatinib]
5.04: KSR1; [3]
inactive: CDK10; [1] | CDK10; [2] | CDK10; [3] | CDK10; [4] | KSR1; [1] | LOC100128443; [1] | LOC100128443; [2] | LOC100128443; [3] | LOC100128443; [4] | MARK1 | MASTL | PI4KA | PIK3R4 | PIP4K2A; [1] | PIP4K2A; [2] | PIP4K2A; [3] | PIP4K2A; [4]
